Columns and labels:
Test in all cases: relative viability (nuclei count vs DMSO), 5 days (fraction); higher = more cells survive
Ricolinostat + Lapatinib = compound: O=C(CCCCCCNC(=O)c1cnc(N(c2ccccc2)c2ccccc2)nc1)NO [Ricolinostat] + CS(=O)(=O)CCNCc1ccc(-c2ccc3ncnc(Nc4ccc(OCc5cccc(F)c5)c(Cl)c4)c3c2)o1 [Lapatinib] (partner 2 µM)
Procedure, shortened: (§1)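 Relative viability divides the nuclei count in treated wells by that in vehicle wells. Lung cancer cell lines were seeded in 1536-well plates, dosed by pin tool the next day, and fixed and stained after 5 days in one step with final 0.05% Triton X-100, 1% formaldehyde and 1 ug/ml Hoechst. Dosing was a single drug or a fixed anchor-drug dose plus five library-drug doses (not always all listed) in √10 steps, and values are medians of duplicate plates imaged at 4×.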

[1] = compound: C1=CC=C(C(=C1)C2=CC=C(C=C2)C3=CSC4=C3C(=C(C(=O)N4)C#N)O)O + N=C(N)NC(=N)NCCc1ccccc1 [Phenformin] (partner 250 µM)
Procedure, shortened: as §1

TGX 221 + Crizotinib = compound: CC1=CN2C(=O)C=C(N=C2C(=C1)C(C)NC3=CC=CC=C3)N4CCOCC4 [TGX 221] + C[C@@H](Oc1cc(-c2cnn(C3CCNCC3)c2)cnc1N)c1c(Cl)ccc(F)c1Cl [Crizotinib] (partner 1 µM)
Procedure, shortened: as §1

TGX 221 + Luminespib = compound: CC1=CN2C(=O)C=C(N=C2C(=C1)C(C)NC3=CC=CC=C3)N4CCOCC4 [TGX 221] + CCNC(=O)c1noc(-c2cc(C(C)C)c(O)cc2O)c1-c1ccc(CN2CCOCC2)cc1 [Luminespib] (partner 0.01 µM)
Procedure, shortened: as §1

Cell Line | relative viability (Ricolinostat + Lapatinib; first compound 0.08 µM) | relative viability (Ricolinostat + Lapatinib; first compound 0.253 µM) | relative viability (Ricolinostat + Lapatinib; first compound 0.8 µM) | relative viability (Ricolinostat + Lapatinib; first compound 2.53 µM) | relative viability ([1]; first compound 0.08 µM) | relative viability ([1]; first compound 0.253 µM) | relative viability ([1]; first compound 0.8 µM) | relative viability ([1]; first compound 2.53 µM) | relative viability ([1]; first compound 8 µM) | relative viability (TGX 221 + Crizotinib; first compound 0.08 µM) | relative viability (TGX 221 + Crizotinib; first compound 0.253 µM) | relative viability (TGX 221 + Crizotinib; first compound 0.8 µM) | relative viability (TGX 221 + Crizotinib; first compound 2.53 µM) | relative viability (TGX 221 + Crizotinib; first compound 8 µM) | relative viability (TGX 221 + Luminespib; first compound 0.08 µM) | relative viability (TGX 221 + Luminespib; first compound 0.253 µM) | relative viability (TGX 221 + Luminespib; first compound 0.8 µM) | relative viability (TGX 221 + Luminespib; first compound 2.53 µM) | relative viability (TGX 221 + Luminespib; first compound 8 µM)
NCI-H23 | 1.16 | 1.25 | 0.998 | 0.773 | 0.782 | 0.85 | 0.872 | 0.754 | 0.583 | 0.58 | 0.391 | 0.518 | 0.465 | 0.454 | 0.196 | 0.225 | 0.217 | 0.21 | 0.208
NCI-H322M | – | 0.494 | 0.624 | 0.66 | 0.69 | 0.751 | 0.776 | 0.871 | 0.865 | 0.945 | 1.03 | 0.95 | 0.823 | 0.911 | 0.735 | 0.802 | 0.776 | 0.812 | 0.644
NCI-H358 | 0.311 | 0.505 | 0.501 | 0.519 | 0.25 | 0.39 | 0.373 | 0.353 | 0.283 | 0.556 | 0.535 | 0.661 | 0.633 | 0.395 | 0.285 | 0.37 | 0.319 | 0.007 | 0.29
NCI-H460 | 0.844 | 0.91 | 1.02 | 0.764 | 0.165 | 0.557 | 0.427 | 0.561 | 0.107 | 0.754 | 0.811 | 1.05 | 0.896 | 0.64 | 0.0366 | 0.029 | 0.0351 | 0.04 | 0.028
NCI-H520 | – | 0.745 | 0.851 | 0.786 | 0.254 | 0.535 | 0.757 | 0.542 | 0.467 | 0.532 | 0.724 | 0.68 | 0.572 | 0.398 | 0.23 | 0.196 | 0.188 | 0.205 | 0.211
NCI-H596 | 0.985 | 1.08 | 1 | 0.743 | 0.629 | 0.695 | 0.741 | 0.724 | 0.571 | 0.993 | 1.04 | 1 | 0.823 | 0.82 | 0.992 | 1.02 | 1.04 | 0.881 | 0.935
NCI-H647 | 0.915 | 1.11 | 1.07 | 0.627 | 0.285 | 0.615 | 0.586 | 0.555 | 0.349 | 1.12 | 0.947 | 1.06 | 1.04 | 0.553 | 0.186 | 0.164 | 0.263 | 0.17 | 0.118
NCI-H650 | – | 0.888 | 0.734 | 0.504 | 0.474 | 0.531 | 0.448 | 0.465 | 0.44 | 0.729 | 0.655 | 0.624 | 0.689 | 0.534 | 0.759 | 0.774 | 0.783 | 0.721 | 0.753
NCI-H661 | – | 0.544 | 0.542 | 0.72 | 0.31 | 0.298 | 0.257 | 0.254 | 0.298 | – | 1.12 | 0.973 | 0.959 | 1.07 | 0.906 | 0.919 | 0.899 | 0.956 | 0.939
NCI-H727 | 0.523 | 1.02 | 0.862 | 0.77 | 0.484 | 0.668 | 0.416 | 0.491 | 0.514 | 0.879 | 0.792 | 0.663 | 0.861 | 0.821 | 0.345 | 0.315 | 0.303 | 0.257 | 0.363
NCI-H838 | 0.683 | 1.08 | 0.955 | 0.873 | 0.316 | 0.641 | 0.538 | 0.54 | 0.543 | 0.833 | 0.77 | 0.783 | 0.699 | 0.51 | 0.219 | 0.335 | 0.296 | 0.344 | 0.266
NCI-H1355 | – | 1.01 | 1 | 0.863 | 0.396 | 0.487 | 0.445 | 0.422 | 0.396 | 1.02 | 1.07 | 1.01 | 0.913 | 0.887 | 0.713 | 0.59 | 0.674 | 0.588 | 0.621
NCI-H1437 | 0.705 | 0.767 | 0.714 | 0.642 | 0.297 | 0.452 | 0.237 | 0.303 | 0.26 | 0.931 | 0.908 | 0.876 | 0.861 | 0.819 | 1.09 | 1.11 | 1.16 | 1.1 | 0.929
NCI-H1563 | 0.898 | 0.927 | 0.97 | 0.834 | 0.63 | 0.714 | 0.702 | 0.622 | 0.679 | 0.846 | 0.832 | 0.766 | 0.736 | 0.666 | 0.499 | 0.525 | 0.538 | 0.515 | 0.523
NCI-H1650 | 0.577 | 0.72 | 0.6 | 0.752 | 0.406 | 0.358 | 0.437 | 0.439 | 0.362 | 0.828 | 0.857 | 0.875 | 0.956 | 0.545 | 0.197 | 0.191 | 0.201 | 0.169 | 0.185
NCI-H1651 | 0.6 | 0.702 | 0.731 | 0.636 | 0.272 | 0.336 | 0.398 | 0.365 | 0.278 | – | 0.834 | 0.865 | 0.839 | 0.753 | 0.828 | 0.653 | 0.741 | 0.592 | 0.568
NCI-H1666 | 0.564 | 0.65 | 0.542 | 0.374 | 0.578 | 0.739 | 0.547 | 0.532 | 0.484 | 1 | 0.933 | 0.988 | 0.935 | 0.957 | 1.08 | 0.977 | 1.03 | 1.02 | 0.975
NCI-H1734 | 1 | 1.05 | 1.02 | 0.891 | 0.368 | 0.381 | 0.41 | 0.377 | 0.319 | 0.652 | 0.643 | 0.643 | 0.588 | 0.537 | 0.232 | 0.178 | 0.202 | 0.17 | 0.18
